Source: the supplement of paper PMC6045584
± gives the standard deviation of the averaged measurements.

Tests used:
[1] = compound: CC(=O)NCC(=O)N1[C@@H]2CC[C@H]1c1ccc(Nc3ncc(C(F)(F)F)c(NC4CCC4)n3)cc12; experiment: surviving fraction relative to DMSO-only wells; higher = less growth inhibition; conditions: exposure time: 5 days
Method in brief: (§1)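 Viability values are CellTiter-Glo luminescence readings, given as surviving fraction against the median of DMSO-only wells. The readings were taken after 10 minutes at room temperature, following five days of continuous exposure to inhibitors at 0.5, 1, 5, 10, 50, 100, 500 and 1000 nM that began 24 hours after log-phase tumour cell lines were seeded at 250–500 cells per well in 384-well plates. Every line was screened three times and kept only if replicate Pearson r >0.7 and median Z' >0.3.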

[2] = compound: T1, CC(=O)O[C@H]1C(=O)[C@@]2(C)[C@H]([C@H](OC(=O)c3ccccc3)[C@]3(O)C[C@H](OC(=O)[C@H](O)[C@@H](NC(=O)c4ccccc4)c4ccccc4)C(C)=C1C3(C)C)[C@]1(OC(C)=O)CO[C@@H]1C[C@@H]2O [PACLITAXEL]; experiment: as above; conditions: exposure time: 5 days
Method in brief: as §1

[3] = compound: CC(=O)c1c(C)c2cnc(Nc3ccc(N4CCNCC4)cn3)nc2n(C2CCCC2)c1=O; experiment: as above; conditions: exposure time: 5 days
Method in brief: as §1

[4] = compound: T2, CC[C@@]1(O)C(=O)OCc2c1cc1n(c2=O)Cc2cc3ccccc3nc2-1 [CAMPTOTHECIN]; experiment: as above; conditions: exposure time: 5 days
Method in brief: as §1

[5] = compound: T3, COCC[n+]1c2c(n(Cc3cnccn3)c1C)C(=O)c1ccccc1C2=O [YM155]; experiment: as above; conditions: exposure time: 5 days
Method in brief: as §1

[6] = compound: T4, COc1cc2ncnc(Nc3ccc(F)c(Cl)c3)c2cc1OCCCN1CCOCC1 [GEFITINIB]; experiment: as above; conditions: exposure time: 5 days
Method in brief: as §1

[7] = compound: T5, C[C@]1(O)C[C@@H](c2nc(-c3ccc4ccc(-c5ccccc5)nc4c3)c3c(N)nccn32)C1 [OSI-906]; experiment: as above; conditions: exposure time: 5 days
Method in brief: as §1

[8] = compound: T6, Cc1ccc(-c2cc(C(F)(F)F)nn2-c2ccc(S(N)(=O)=O)cc2)cc1 [CELECOXIB]; experiment: as above; conditions: exposure time: 5 days
Method in brief: as §1

[9] = compound: O=C(O)C1(C(=O)O)CCC1.[NH2-].[NH2-].[Pt+2] [CARBOPLATIN]; experiment: as above; conditions: exposure time: 5 days
Method in brief: as §1

[10] = compound: CC(=O)NCC(=O)N1[C@@H]2CC[C@H]1c1ccc(Nc3ncc(C(F)(F)F)c(NC4CCC4)n3)cc12; experiment: area under dose-response curve of surviving fraction (unscaled, Aref=0) (surviving fraction x log10(nM)); higher = more resistant; conditions: exposure time: 5 days; dose range 0.5-1000 nM
Method in brief: (§2)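 Tumour cell lines in 384-well plates were exposed for five days to eight inhibitor concentrations from 0.5 to 1000 nM. Viability was read by CellTiter-Glo luminescence, normalised to DMSO-only wells, in three screens per line. Dose-response survival curves were fitted to surviving fractions by 3-parameter logistic regression in the drc R package. Area under the curve is the unscaled activity area (Aref = 0) over log10 dose.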

[11] = compound: T1, PACLITAXEL; experiment: as above; conditions: exposure time: 5 days; dose range 0.5-1000 nM
Method in brief: as §2

[12] = compound: CC(=O)c1c(C)c2cnc(Nc3ccc(N4CCNCC4)cn3)nc2n(C2CCCC2)c1=O; experiment: as above; conditions: exposure time: 5 days; dose range 0.5-1000 nM
Method in brief: as §2

[13] = compound: T2, CAMPTOTHECIN; experiment: as above; conditions: exposure time: 5 days; dose range 0.5-1000 nM
Method in brief: as §2

[14] = compound: T3, YM155; experiment: as above; conditions: exposure time: 5 days; dose range 0.5-1000 nM
Method in brief: as §2

[15] = compound: T4, GEFITINIB; experiment: as above; conditions: exposure time: 5 days; dose range 0.5-1000 nM
Method in brief: as §2

[16] = compound: T5, OSI-906; experiment: as above; conditions: exposure time: 5 days; dose range 0.5-1000 nM
Method in brief: as §2

[17] = compound: T6, CELECOXIB; experiment: as above; conditions: exposure time: 5 days; dose range 0.5-1000 nM
Method in brief: as §2

For CHLA90 AUTONOMIC GANGLIA, the surviving fraction ([1]; 0.5 nM) was 0.951 ± 0.025, the surviving fraction ([1]; 1 nM) was 0.983 ± 0.046 and the surviving fraction ([1]; 5 nM) was 0.96 ± 0.028. It also gave a surviving fraction ([1]; 10 nM) of 0.91 ± 0.039, a surviving fraction ([1]; 50 nM) of 0.754 ± 0.032 and a surviving fraction ([1]; 100 nM) of 0.5867 ± 0.0055. For the same test system, the surviving fraction ([1]; 500 nM) was 0.436 ± 0.045, the surviving fraction ([1]; 1000 nM) was 0.301 ± 0.037 and the surviving fraction ([2]; 0.5 nM) was 0.957 ± 0.032. For the same test system, the surviving fraction ([2]; 1 nM) was 0.948 ± 0.056, the surviving fraction ([2]; 5 nM) was 0.507 ± 0.022 and the surviving fraction ([2]; 10 nM) was 0.231 ± 0.026. It also gave a surviving fraction ([2]; 50 nM) of 0.0937 ± 0.01, a surviving fraction ([2]; 100 nM) of 0.076 ± 0.016 and a surviving fraction ([2]; 500 nM) of 0.0513 ± 0.0046. For the same test system, the surviving fraction ([2]; 1000 nM) was 0.0577 ± 0.009, the surviving fraction ([3]; 0.5 nM) was 1.04 ± 0.067 and the surviving fraction ([3]; 1 nM) was 1.06 ± 0.02. For the same test system, the surviving fraction ([3]; 5 nM) was 1.04 ± 0.075, the surviving fraction ([3]; 10 nM) was 1.01 ± 0.055 and the surviving fraction ([3]; 50 nM) was 0.934 ± 0.013. For the same test system, the surviving fraction ([3]; 100 nM) was 0.95 ± 0.035, the surviving fraction ([3]; 500 nM) was 0.839 ± 0.053 and the surviving fraction ([3]; 1000 nM) was 0.687 ± 0.015. It also gave a surviving fraction ([4]; 0.5 nM) of 0.318 ± 0.011, a surviving fraction ([4]; 1 nM) of 0.835 ± 0.041 and a surviving fraction ([4]; 5 nM) of 0.584 ± 0.031. For the same test system, the surviving fraction ([4]; 10 nM) was 0.481 ± 0.05, the surviving fraction ([4]; 50 nM) was 0.173 ± 0.0053 and the surviving fraction ([4]; 100 nM) was 0.268 ± 0.0099. It also gave a surviving fraction ([4]; 500 nM) of 0.133 ± 0.033, a surviving fraction ([4]; 1000 nM) of 0.137 ± 0.027 and a surviving fraction ([5]; 0.5 nM) of 0.807 ± 0.017. The surviving fraction ([5]; 1 nM) was 0.926 ± 0.075, the surviving fraction ([5]; 5 nM) was 0.734 ± 0.057 and the surviving fraction ([5]; 10 nM) was 0.44 ± 0.057. For the same test system, the surviving fraction ([5]; 50 nM) was 0.106 ± 0.028, the surviving fraction ([5]; 100 nM) was 0.0633 ± 0.013 and the surviving fraction ([5]; 500 nM) was 0.025 ± 0.0027. It also gave a surviving fraction ([5]; 1000 nM) of 0.0273 ± 0.0015, a surviving fraction ([6]; 0.5 nM) of 0.939 ± 0.022 and a surviving fraction ([6]; 1 nM) of 0.905 ± 0.089. It also gave a surviving fraction ([6]; 5 nM) of 0.873 ± 0.052, a surviving fraction ([6]; 10 nM) of 0.848 ± 0.056 and a surviving fraction ([6]; 50 nM) of 0.902 ± 0.069. The surviving fraction ([6]; 100 nM) was 0.876 ± 0.041, the surviving fraction ([6]; 500 nM) was 0.881 ± 0.044 and the surviving fraction ([6]; 1000 nM) was 0.801 ± 0.066. For the same test system, the surviving fraction ([7]; 0.5 nM) was 0.883 ± 0.046, the surviving fraction ([7]; 1 nM) was 0.904 ± 0.019 and the surviving fraction ([7]; 5 nM) was 0.862 ± 0.036. For the same test system, the surviving fraction ([7]; 10 nM) was 0.828 ± 0.08, the surviving fraction ([7]; 50 nM) was 0.832 ± 0.059 and the surviving fraction ([7]; 100 nM) was 0.792 ± 0.084. For the same test system, the surviving fraction ([7]; 500 nM) was 0.78 ± 0.056, the surviving fraction ([7]; 1000 nM) was 0.725 ± 0.082 and the surviving fraction ([8]; 0.5 nM) was 1.01 ± 0.048. The surviving fraction ([8]; 1 nM) was 0.999 ± 0.058, the surviving fraction ([8]; 5 nM) was 0.99 ± 0.054 and the surviving fraction ([8]; 10 nM) was 1.03 ± 0.12. For the same test system, the surviving fraction ([8]; 50 nM) was 1.03 ± 0.088, the surviving fraction ([8]; 100 nM) was 1 ± 0.15 and the surviving fraction ([8]; 500 nM) was 0.999 ± 0.058. It also gave a surviving fraction ([8]; 1000 nM) of 1.08 ± 0.026, a surviving fraction ([9]; 0.5 nM) of 0.925 ± 0.057 and a surviving fraction ([9]; 1 nM) of 0.943 ± 0.072. For the same test system, the surviving fraction ([9]; 5 nM) was 0.923 ± 0.058, the surviving fraction ([9]; 10 nM) was 0.917 ± 0.045 and the surviving fraction ([9]; 50 nM) was 1.14 ± 0.11. It also gave a surviving fraction ([9]; 100 nM) of 1.11 ± 0.098, a surviving fraction ([9]; 500 nM) of 1.09 ± 0.097 and a surviving fraction ([9]; 1000 nM) of 1.13 ± 0.14. The “area under dose-response curve” value [10] was 2.51, the “area under dose-response curve” value [11] was 1.13 and the “area under dose-response curve” value [12] was 3.14. For the same test system, the “area under dose-response curve” value [13] was 1.21, the “area under dose-response curve” value [14] was 1.31 and the “area under dose-response curve” value [15] was 2.9. The “area under dose-response curve” value [16] was 2.73 and the “area under dose-response curve” value [17] was 3.34.
